Where “and” joins values, the source holds several entries; their conditions need not be identical. Equal values may be shown once.
Experiments:
Assay type in all cases: physicochemical
[1] = Fluorescence photostability
Method: Fluorescence photostability: Fluorescence emission spectra were measured at different time points (1 day, 7 days and 14 days). The excitation and emission slit widths were each set at 5 nm. Three measurements were performed and averaged for accuracy.

[2] = Fluorescence photobleaching; details: continuous irradiation for 600 seconds
Method: The fluorescence emission data was collected at 80 points per second for 10 minutes. The excitation and emission slit widths were each set at 5 nm. At least three measurements were performed and averaged for accuracy.

[3] = Quantum yield (QY) measurement; details: MeOH; excitation set at 350 nm if maximal excitation less than 350 nm
Method: Quantum yield (QY) measurement: 5 mL sample solution was pipetted into a 1.0 cm path-length quartz cuvette with a tube (Hellma, Müllheim, Germany), and the absolute quantum yield was measured on an absolute PL quantum yield spectrometer C11347 (Hamamatsu Photonics, Shizuoka, Japan) at ambient temperature. The relevant blanks, namely anhydrous MeOH, MeOH solutions of ZnCl2 (CuCl2), or DMSO solution of ZnCl2, were used as background and subtracted. At least five measurements were performed and averaged for accuracy.
(§1) Fluorescence spectroscopy and quantum yield (QY) measurement: 600 μL sample solution was pipetted into a 1.0 cm path-length quartz cuvette, and the spectrum was collected using a FluoroMax-4 Spectrofluorometer (Horiba Jobin Yvon, Kyoto, Japan) at ambient temperature. The excitation and emission wavelengths were set at 300-500 nm and 400-650 nm, respectively, with a slit of 2 nm. Absolute fluorescence QY measurements were performed using Quanta-Phi integrating sphere connected to Fluoromex-4.

[4] = Fluorescence characterization (excitation/emission) of self-assemblies; details: for fluorescent emission / Emission (λEm) / Excitation (λEx): MeOH; for fluorescent emission: excited at 370 nm; for Emission (λEm): maximal emission; for Excitation (λEx): maximal excitation
Method: UV-Visible fluorescence characterization: 600 μL sample solution was pipetted into a 1.0 cm path-length quartz cuvette, and the spectrum was collected using a FluoroMax-4 Spectrofluorometer (Horiba Jobin Yvon, Kyoto, Japan) at ambient temperature. For molecular fluorescence of some experiments, the emission wavelength was set at 350 nm with a slit of 3 nm, and the excitation wavelength was set at 200-330 nm with a slit of 3 nm. For self-assembly fluorescence, the excitation wavelength was set at 370 nm with a slit of 3 nm, and the emission wavelength was set at 380-700 nm with a slit of 3 nm. For excitation-dependent maximal emission evolution experiment, the excitation wavelengths were set at 300-450 nm with a slit of 3 nm, and the emission wavelengths were set at 380-600 nm with a slit of 3 nm. According to the samples, anhydrous MeOH or MeOH solution of ZnCl2 (CuCl2) was used as background and subtracted. At least five measurements were performed and averaged for accuracy. Emission and excitation wavelengths, slit dimensions and background solutions were adjusted per the measured sample and are as indicated below. […]
as §1

[5] = Fluorescent decay measurement (lifetime); details: MeOH; for Lifetime (τ): at maximal excitation and emission
Method: Fluorescent decay measurement (lifetime): 600 μL sample solution was pipetted into a 1.0 cm path-length quartz cuvette, and the spectrum was collected using a FluoroMax-4 Spectrofluorometer (Horiba Jobin Yvon, Kyoto, Japan) equipped with a NanoLED laser excitation source at ambient temperature. The wavelength was set as the maximum excitation and emission of the samples, and a LUDOX sample (silica beads, 2 μm) was used as the prompt. The lifetime was determined by fitting the fluorescent decay data from the DAS6 Analysis software (Horiba Jobin Yvon, Kyoto, Japan). Three measurements were performed and averaged for accuracy.

[6] = Morphology and size of self-assemblies (AFM, DLS, TEM); details: self-assemblies in MeOH
Method: Dynamic light scattering (DLS): 850 μL of the sample solution was introduced into a DTS1070 folded capillary cell (Malvern, Worcestershire, U.K.), and the size was measured using a Zetasizer Nano ZS analyzer (Malvern Instruments, Malvern, UK) at 25.0° C. and a backscatter detector (173°). Three measurements were performed and averaged for accuracy.
Atomic force microscopy (AFM): 4 μL of sample solution was dropped onto a freshly cleaved mica surface and let it dry. The mica was then rinsed with water and purged dried gently with nitrogen. A topographic image was recorded under a NanoWizard 3 BioScience AFM (JPK, Berlin, Germany) in the tapping mode at ambient temperature, with 512×512 pixel resolution and a scanning speed of 1.0 Hz.
Transmission electron microscopy (TEM): A carbon-coated copper grid was placed on a 10 μL cyclo-dipeptide droplet for 1 minute and then blotted. Next, the washed grid was placed on a 10 μL droplet containing 4% (w/v) uranyl acetate solution for 1 min and then blotted. Samples were examined using Tecnai G2 Spirit TEM (FEI) at 80 kV.
Atomic force microscopy (AFM): 5 μL of sample solution was dropped onto a freshly cleaved mica surface and dried by N2 purge (99.99%). The mica was then rinsed with water and gently purge dried with nitrogen. A topographic image was recorded under a Dimension icon AFM (Bruker) in the tapping mode at ambient temperature, with a 512×512-pixel resolution and a scanning speed of 1.0 Hz. Nanoscope Analysis software was used for data collection and analysis.
For cyclo-dipeptide-Zn structures, aliquots (10 μL) of cyclo-dipeptide-Zn were added into a glow discharge copper grid (400 mesh) coated with a thin carbon film for 2 minutes. Excess solution was then removed, and the grid was washed three times with deionized water. TEM images were viewed using a FEI Tecnai F20 electron microscope operating at 80 kV.

[7] = emission band 425, excitation 340 nm
[8] = emission band 520, excitation 420 nm
[9] = emission band 380 (strong), excitation 320 nm
[10] = emission band 465 (weak), excitation 370 nm

Structures [6]	Compound	Emission (λEm) [4]	Excitation (λEx) [4]	Lifetime (τ) [5]	other results
–	CC1(C)C(/C=C/C=C/C=C/C=C2\N(CCCCS(=O)(=O)O)c3ccc4ccccc4c3C2(C)C)=[N+](CCCCS(=O)(=O)[O-])c2ccc3ccccc3c21 [ICG, indocyanine green]	–	–	–	fluorescence after exposure to natural light (photostability) ([1]; after 1 day): lost all fluorescence; photoluminescence after continuous irradiation (photobleaching) [2]: significant fluorescence decay
–	cyanine 5.5 [Cy5.5]	–	–	–	fluorescence lost (photostability) ([1]; after 1 week): 20%; photoluminescence after continuous irradiation (photobleaching) [2]: significant fluorescence decay
nanofibers	cyclo-dihistidine [cyclo-HH]	–	–	–	QY [3]: 3%; fluorescent emission [4]: 430 nm; Emission (λEm) [4, 7]: 425 nm; Emission (λEm) [4, 8]: 520 nm; Excitation (λEx) [4, 7]: 340 nm; Excitation (λEx) [4, 8]: 420 nm; Lifetime (τ) [5, 7]: 4.89 ± 0.02 ns; Lifetime (τ) [5, 8]: 6.48 ± 0.04 ns
platelets	cyclo-dityrosine [cyclo-YY]	no detectable emissions	–	–	emission ([4]; DMSO, Ex 450 nm (cyclo-FF), Ex 480 nm (cyclo-YY)): 570 nm
nanofibers	phenylalanine-histidine cyclic dipeptide [cyclo-HF]	410 nm	340 nm	3.29 ± 0.03 ns	–
nanofibers	tryptophan-histidine cyclic dipeptide [cyclo-WH]	–	–	–	Emission (λEm) [4, 9]: 380 (strong) nm; Emission (λEm) [4, 10]: 465 (weak) nm; Excitation (λEx) [4, 9]: 320 nm; Excitation (λEx) [4, 10]: 370 nm
nanospheres	tryptophan-tryptophan cyclic dipeptide [cyclo-WW]	–	370 nm	5.45 ± 0.03 ns	fluorescent emission [4]: 425 nm and 520 nm; Emission (λEm) ([4]; emission band 440 (strong), excitation 370 nm): 440 (strong) nm; fluorescence lifetime ([5]; excitation 370 nm): 5.6 ns

Compound	Structures [6]	Emission (λEm) [4]	Excitation (λEx) [4]	Lifetime (τ) [5]	other results
histidine-tyrosine cyclic dipeptide [cyclo-HY]	nanofibers	390 nm	310 nm	0.003 ± 0.034 ns	–
phenylalanine-tyrosine cyclic dipeptide [cyclo-FY]	nanofibers	430 nm	350 nm	0.022 ± 0.003 ns	QY [3]: 3%
tyrosine-tryptophan cyclic dipeptide [cyclo-WY]	nanofibers	400 nm	320 nm	0.232 ± 0.004 ns	–
